The subject of assay [1] is myotubes (C2C12). Kind of assay: Fatty acid oxidation, palmitate-induced O2 consumption (Seahorse XF24), myotubes. It is filed as cell-based. The following applies: 24 hours treatment, leucine 0.5 mM, HMB 5 μM, resveratrol 200 nM, partner at its no-effect concentration, % change from control.
Assay [2] deals with T1, SIRT1 (Mus musculus, UniProt Q923E4).
T1 sequence (Q923E4 1-737): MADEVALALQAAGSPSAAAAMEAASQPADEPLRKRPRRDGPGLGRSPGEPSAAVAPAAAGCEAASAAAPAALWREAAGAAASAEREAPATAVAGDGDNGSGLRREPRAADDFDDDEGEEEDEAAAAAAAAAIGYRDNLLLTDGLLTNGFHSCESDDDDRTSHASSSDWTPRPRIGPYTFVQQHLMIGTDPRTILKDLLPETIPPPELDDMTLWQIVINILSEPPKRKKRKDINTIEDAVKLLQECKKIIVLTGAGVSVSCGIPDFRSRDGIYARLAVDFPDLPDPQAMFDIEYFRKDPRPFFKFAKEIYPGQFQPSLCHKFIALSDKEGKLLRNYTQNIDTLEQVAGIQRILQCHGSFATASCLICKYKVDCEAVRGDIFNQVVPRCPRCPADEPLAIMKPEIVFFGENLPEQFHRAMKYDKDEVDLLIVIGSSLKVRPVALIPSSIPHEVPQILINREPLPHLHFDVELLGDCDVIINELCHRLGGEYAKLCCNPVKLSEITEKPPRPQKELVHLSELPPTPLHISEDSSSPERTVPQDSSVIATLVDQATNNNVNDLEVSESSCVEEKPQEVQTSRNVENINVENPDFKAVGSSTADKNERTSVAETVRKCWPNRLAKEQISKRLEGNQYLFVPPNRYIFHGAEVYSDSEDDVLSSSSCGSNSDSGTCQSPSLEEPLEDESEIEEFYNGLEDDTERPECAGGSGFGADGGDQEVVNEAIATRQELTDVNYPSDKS
In words: Sirt1 activity of treated cells (SIRT1 Fluorimetric Drug Discovery Kit), Example 5. It is filed as cell-based. Also noted: endogenous in cells; host or cells: 3T3-L1 adipocytes and C2C12 myotubes. Particulars: leucine 0.5 mM, HMB 5 μM, resveratrol 200 nM; summary in Example 5, system not stated. The method, then: All compounds were tested for potential to independently or synergistically modulate sirtuin signaling either by direct stimulation or indirect via upstream signaling via AMPK. A key outcome of Sirt1 signaling is stimulation of PGC1-α and subsequent stimulation of mitochondrial biogenesis and fatty acid oxidation. Accordingly, fatty acid oxidation, measured as palmitate-induced oxygen consumption as described below, was utilized as a sensitive first level of screening for aerobic mitochondrial metabolism. A dose-response curve for fatty acid oxidation was established for each compound studied, and a “sub-therapeutic dose” was defined as the highest dose that exerted no effect in this system. […] Following assessment of fatty acid oxidation, Sirt1 activity, AMPK activity, mitochondrial biogenesis and glucose utilization (measured as glucose-induced extracellular acidification in the absence of fatty acids in the media) were assessed for lead combinations and appropriate controls. SIRT1 activity was measured by using the SIRT1 Fluorimetric Drug Discovery Kit (BML-AK555, ENZO Life Sciences International, Inc. PA, USA). […]

The target in assay [3] is T1, SIRT1. In words: Adipose tissue Sirt1 activity in diet-induced obese mice. It is filed as in vivo, c57/BL6 mice. Also noted: from tissue; host or cells: adipose tissue of diet-induced obese c57/BL6 mice. Particulars: 6 weeks.
In assay [4] the test system is UCP1. In words: UCP1 mRNA expression in subcutaneous adipose tissue of diet-induced obese mice. It is filed as in vivo, c57/BL6 mice. Particulars: six weeks, resveratrol 12.5 mg/kg diet, leucine 2.42%. The method, then:
Expression of 18S, Sirt1, Sirt3, PGC1-α, cytochrome c oxidase subunit VIIc1 (COX 7), mitochondrial NADH dehydrogenase, nuclear respiratory factor 1 (NRF1), uncoupling protein (UCP2 (adipocyte)/UCP3 (myocyte), p53, AMPK, Akt/PKB, and GLUT4 is measured via quantitative real-time PCR using an ABI 7300 Real-Time PCR system (Applied Biosystems, Branchburg, N.J.) with a TaqMan® core reagent kit. All primers and probe sets can be obtained from Applied Biosystems TaqMan® Assays-on-Demand and utilized accordingly to manufacturer's instructions. Pooled RNA from each cell type are serial-diluted in the range of 0.0156-50 ng and were used to establish a standard curve; total RNA for each unknown sample is also diluted in this range. […] Expression of each gene of interest is then normalized using the corresponding 18S quantitation.
Six week old male c57/BL6 mice were fed a high-fat diet with fat increased to 45% of energy (Research Diets D12451) for 6 weeks to induce obesity. […] RNA was extracted from the subcutaneous adipose tissue, and gene expression was evaluated according to methods described in Example 4. […] Plasma levels of irisin were also evaluated, the results of which are described in Example 8 and illustrated in FIG. 70. […] Protein expression may also be determined by Western blot or ELISA, as in Example 8. […]

Assay [5] relates to Adipocytes (3T3-L1). In words: Fatty acid oxidation by 3H-palmitate in 3T3-L1 adipocytes. The class given is cell-based. Particulars: 4 hours, low (5 mM) glucose, resveratrol 200 nM, HMB 5 uM, leucine 0.5 mM. The method, then: High glucose medium reduced fatty acid oxidation by 46% (p<0.05).
Fatty acid oxidation was measured using ^3H-labeled palmitate oxidation, with the ^3H label trapped as water as a result of the fat oxidation. The ^3H was then measured via scintillation counter.

Consider `Oc1ccc(/C=C/c2cc(O)cc(O)c2)cc1` [resveratrol, 3,5,4′-Trihydroxy-trans-stilbene], for which, in assay [1], the “increase in myotube fatty acid oxidation” value is reported as “neither component exerted an independent effect”. Further, the “stimulation of Sirt1 activity” value in assay [2] is recorded as “no effect”. The “adipose tissue Sirt1 activity” value in assay [3] (high dose resveratrol) is recorded as “non-significant trend towards an increase”; in assay [3] (low dose of resveratrol, HMB, leucine diets), “Neither resveratrol nor HMB exerted significant independent effects”. The “increase in UCP1 expression in white subcutaneous adipose tissue” value in assay [4] is reported as “no independent effect”. Moreover, the “increase in fatty acid oxidation, low glucose” value in assay [5] was “no independent effect”.
